Test system: C57BL/6J mice fed CDAA-HF
Assay: Fibrotic markers in livers of mice fed choline deficient high fat (CDAA-HF) diet
Assay type: in vivo, mouse
Conditions: 20, 60 and 200 mg/kg oral gavage daily, final week of 4 weeks CDAA-HF, *p<0.05 vs vehicle
Procedure: The choline deficient amino acid defined diet (CDAA) is a well-characterized model of […] associated liver inflammation and fibrosis. The CDAA-HF mouse model is commonly used to preclinically evaluate potential therapeutic targets for non-alcoholic steatohepatitis (NASH). To investigate the effect of Compound 26 (Example 26; 20, 60, and 200 mg/kg, oral gavage, daily) on fibrotic gene and protein parameters, 10 week-old male C57BL/6J mice were fed CDAA-HF (choline deficient, L-amino acid defined, high fat diet; A16092201) for 4 weeks, with Compound 26 treatment only during the final week of the study. On the last day of the study, mice were euthanized by CO2 asphyxiation for tissue collection, and blood was collected by cardiac puncture. Livers were rapidly removed and frozen in liquid nitrogen for downstream mRNA and protein isolation. […] Statistical analysis was performed with One Way ANOVA. *p<0.05 vs vehicle treated (FIG. 1). Col1a1=Collagen; TGFB2=transforming growth factor beta 2. All procedures performed on animals were in accordance with regulations and established guidelines and were reviewed and approved by an Institutional Animal Care and Use Committee or through an ethical review process.

COc1ccc(-c2nc3sc4c(O)c(Cl)ccc4c3c(=O)n2Cc2cnco2)c(C2CC2)c1 [Example 26, 7-chloro-2-(2-cyclopropyl-4-methoxyphenyl)-8-hydroxy-3-(oxazol-5-ylmethyl)benzo[4,5]thieno[2,3-d]pyrimidin-4(3H)-one]
significantly decreases: liver collagen (Col1a1) mRNA (FIG. 1a) | liver TGFB2 (fibrotic cytokine) (FIG. 1b) | liver fibronectin (fibroblast activation marker) (FIG. 1c)

— patent US20250154163A1, “Pyrimidinone-Containing 17-Beta-Hydroxysteroid Dehydrogenase Type 13 Inhibitors” (ENANTA PHARMACEUTICALS, INC., priority 2023, published 2025)
